This is an account of results in BindingDB's records for doi:10.1016/j.bmcl.2004.03.090 (Johnson & Johnson Pharmaceutical Research & Development, 2004).

The target of the test is Glycogen synthase kinase-3 beta (Oryctolagus cuniculus). In words: Inhibitory concentration against rabbit glycogen synthase kinase-3 beta using protein phosphatase inhibitor-2 as substrate.
`CCn1cc(C2=C(c3cn(CCCO)c4ncccc34)C(=O)NC2=O)c2cccnc21` [3-(1-Ethyl-1H-pyrrolo[2,3-b]pyridin-3-yl)-4-[1-(3-hydroxy-propyl)-1H-pyrrolo[2,3-b]pyridin-3-yl]-pyrrole-2,5-dione] showed a concentration for half-maximal inhibition (IC50) of 65 nM. Turning to `O=C1NC(=O)C(c2cn(CCCO)c3ncccc23)=C1c1ccc(F)cc1Cl` [3-(2-Chloro-4-fluoro-phenyl)-4-[1-(3-hydroxy-propyl)-1H-pyrrolo[2,3-b]pyridin-3-yl]-pyrrole-2,5-dione], the midpoint of inhibition, the IC50, lay at 6 nM.

Compound `COc1ccccc1C1=C(c2cn(CCCNS(N)(=O)=O)c3ncccc23)C(=O)NC1=O` [3-(7-Azaindolyl)-4-arylmaleimide analogue] yielded an IC50 of 20 nM. Compound `O=C1NC(=O)C(c2cn(CCCO)c3ncccc23)=C1c1cccc2ccccc12` [3-[1-(3-Hydroxy-propyl)-1H-pyrrolo[2,3-b]pyridin-3-yl]-4-naphthalen-1-yl-pyrrole-2,5-dione] showed a 50% inhibitory concentration (IC50) of 31 nM.

On to `O=C1NC(=O)C(c2cn(CCCO)c3ncccc23)=C1c1ccccn1` [3-[1-(3-Hydroxy-propyl)-1H-pyrrolo[2,3-b]pyridin-3-yl]-4-pyridin-2-yl-pyrrole-2,5-dione], for which the IC50 was 480 nM. As to `COc1ccccc1C1=C(c2cn(CCCNC=O)c3ncccc23)C(=O)NC1=O` [N-(3-{3-[4-(2-Methoxy-phenyl)-2,5-dioxo-2,5-dihydro-1H-pyrrol-3-yl]-pyrrolo[2,3-b]pyridin-1-yl}-propyl)-formamide], it took 8 nM to reach half-maximal inhibition (IC50). This IC50 lies about 60-fold lower than the previous one. For the compound `COc1ccccc1C1=C(c2cn(CCCNS(C)(=O)=O)c3ncccc23)C(=O)NC1=O` [N-(3-{3-[4-(2-Methoxy-phenyl)-2,5-dioxo-2,5-dihydro-1H-pyrrol-3-yl]-pyrrolo[2,3-b]pyridin-1-yl}-propyl)-methanesulfonamide], inhibition was half-maximal at 14 nM (IC50).

What is called IC50 is the concentration needed to halve the response being measured.
